Holding throughout (test): inhibition of tumour cell growth, NCI panel, 48 h
Experiment [1] concerns SW-620 colon.
Experiment [2] relates to SK-MEL-2 melanoma.
The test system of experiment [3] is OVCAR-4 ovarian.
Experiment [4] concerns KM12 colon.
The subject of experiment [5] is A549 NSCLC.
Experiment [6] relates to OVCAR-8 ovarian.
In experiment [7] the test system is U251 CNS.
Experiment [8] has as its system SNB-75 CNS.
For experiment [9], the system named is MDA-N.
Experiment [10] deals with MDA-MB-435.

Here are results for 31 compounds from PubChem BioAssay (NCI).

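Test compounds were applied to cells in 96-well plates for 48 hours at 5 doses. GI50: concentration for 50% inhibition of growth. TGI: total growth inhibition.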 Bounds are passed on as bounds.

`O=NN(CCCl)C(=O)NC1CCC(O)CC1` (configuration not stated): the TGI in [1], in experiment [2], in [3], in experiment [4], in experiment [5] and in [6] was more than 100 µM throughout. The results for the TGI in experiment [7] and in experiment [8] were more than 100 µM and more than 79.7 µM, respectively.

In the case of `O=C(CN(c1ccccc1)c1ccccc1)n1nnc2ccccc21`, the TGI in experiment [1] was more than 100 µM; in [2], 96 µM; in [5], more than 100 µM; in experiment [6], more than 100 µM; in experiment [7] it was more than 100 µM; in experiment [8], more than 100 µM.

Take `COc1ccc2c(cnc3c4cc(OC)c(OC)cc4ccc23)c1`: the TGI in [1], in experiment [9], in experiment [2], in [3], in experiment [4] and in experiment [10] was more than 100 µM each time. The TGI in [5], in experiment [6] and in experiment [7] was more than 100 µM in each case.

As to `O=C(O)c1ccc(OCc2nc3cc(C(F)(F)F)ccc3nc2-c2ccccc2)cc1`, the TGI in [1], in experiment [9], in experiment [2], in [4], in experiment [10] and in [5] was more than 100 µM throughout. Besides, the TGI in [6] was more than 100 µM; in experiment [7], more than 100 µM; in experiment [8] it was 98.7 µM.

In the case of `O=C1c2ccccc2C2(c3ccc(Cl)cc3)N[C@H]3CCCC[C@@H]3N12` (some centres not stated), the TGI in experiment [1], in experiment [9], in experiment [3], in experiment [4], in [10] and in experiment [5] was more than 100 µM throughout. Moreover, the TGI in experiment [6], in experiment [7] and in experiment [8] was more than 100 µM throughout.

On to `Cc1ccc2c(c1)C(=O)C1(C2)Cc2cccc(C)c2C1=O` (configuration not stated), for which the TGI in [1], in experiment [9], in experiment [3], in experiment [4], in [10] and in [5] was more than 100 µM throughout. Moreover, the TGI in experiment [6], in experiment [7] and in experiment [8] was more than 100 µM throughout.

With `O=C1O[C@H](c2ccc3c(c2)OCO3)[C@H]2CO[C@@H](c3ccc4c(c3)OCO4)[C@@H]12`, the TGI in [1], in experiment [9], in experiment [2], in experiment [3], in [4] and in experiment [10] was more than 100 µM each time. The TGI in [5], in experiment [6] and in experiment [7] was more than 100 µM each time.

Take `Cc1ccc(S(=O)(=O)C(C#N)c2nc3ccccc3nc2-n2ccnc2)cc1` (configuration not stated): the TGI in experiment [2], in [3], in experiment [4], in experiment [5], in experiment [6] and in experiment [7] was more than 100 µM throughout. In [8], the TGI is more than 100 µM.

As for `COc1c(C(C)C)cc2c3c1OC(=O)[C@@]31CCCC(C)(C)C1CC2` (some centres not stated), the TGI in experiment [1] is more than 100 µM; in experiment [2], 84 µM; in experiment [5] it was 60.1 µM; in experiment [6], 62 µM; in [7] it was more than 100 µM; in experiment [8], 55.7 µM.

For `CC1CCCC(CC(=O)O)(CC(=O)O)C1` (configuration not stated), the TGI in [1], in experiment [9], in experiment [2], in [3], in [4] and in [10] was more than 100 µM throughout. Moreover, the TGI in experiment [5], in experiment [6] and in [7] was more than 100 µM throughout.

Consider `CC(=O)O[C@]12CCCCCC1C1(O)C(O)CCCC[C@H]12` (some centres not stated), for which the TGI in experiment [1], in experiment [2], in [3], in experiment [4], in experiment [5] and in experiment [6] was more than 100 µM throughout. In addition, the TGI in experiment [7] and in [8] was more than 100 µM in each case.

Take `COC1C=COC2(C)Oc3c(C)c(O)c4c(O)c(c(C5SCCS5)c(O)c4c3C2=O)NC(=O)C(C)=C/C=C\C(C)C2OC(C)(C)OC(C2C)C(C)C(OC(C)=O)C1C` (configuration not stated): the TGI in experiment [1] is more than 100 µM; in experiment [2], 23.2 µM; in [3] it was 54.7 µM; in experiment [4] it was more than 100 µM; in experiment [10], 47.9 µM; in experiment [5], 22.6 µM. For the same compound, the values for the TGI in experiment [6], in [7] and in [8] were 28.5 µM, more than 100 µM and more than 100 µM, respectively.

Regarding `CSc1ncnc2c1ncn2CCC#N`, the TGI in experiment [1], in [9], in experiment [3], in experiment [4], in [10] and in experiment [5] was more than 100 µM throughout. Further, the TGI in experiment [6] and in experiment [8] was more than 100 µM throughout.

On to `CC(C)(C)C(=O)CC1=Nc2ccccc2SC1(O)CC(=O)C(C)(C)C` (configuration not stated), for which the TGI is more than 100 µM in experiment [1]; more than 100 µM in experiment [9]; 32 µM in experiment [2]; more than 100 µM in experiment [4]; 64.5 µM in experiment [10]; 51 µM in [5]. Besides, the TGI in [6] was 57 µM; in experiment [7], more than 100 µM.

For the compound `CSc1sc2ccccc2[s+]1`, the TGI in [1], in experiment [2], in [3], in experiment [4], in experiment [5] and in experiment [6] was more than 100 µM throughout. Further, the TGI in experiment [7] and in experiment [8] was more than 100 µM throughout.

As for `COc1cc2c3c(c1OC)C1(C=CC(=O)C=C1)C[C@H]3N(C)CC2`, the TGI in experiment [1], in experiment [2], in experiment [4], in experiment [5], in experiment [6] and in experiment [7] was more than 100 µM each time. Moreover, the TGI in [8] was more than 100 µM.

In the case of `O=C1c2cccnc2-c2nccc3c2c1nc1cc(Br)ccc13`, the TGI is 0.162 µM in experiment [1]; 0.732 µM in experiment [9]; 0.563 µM in experiment [3]; 0.338 µM in experiment [4]; 0.607 µM in [10]; 0.309 µM in [5]. The TGI in experiment [6] is 0.388 µM; in experiment [7] it was 0.288 µM; in [8] it was 0.81 µM.

On to `CN1COCc2c1ccc1cc3ccc4c(c3nc21)COCN4S(C)(=O)=O`, for which the TGI in experiment [1], in [9], in experiment [3], in experiment [4], in [10] and in experiment [5] was more than 100 µM in each case. Besides, the TGI in [6] is more than 100 µM; in experiment [7], more than 100 µM; in experiment [8] it was 67.5 µM.

With `OCc1ccc(C2CC(c3ccco3)=NN2c2ccccc2)o1` (configuration not stated), the TGI in experiment [1], in experiment [2], in experiment [3], in experiment [4], in [5] and in [6] was more than 100 µM in each case. The TGI in experiment [7] and in [8] was more than 100 µM in each case.

On to `COc1ccc2cc(C(C)C(=O)N3CCOC3=O)ccc2c1` (configuration not stated), for which the TGI in [1], in experiment [9], in [3], in experiment [4], in experiment [10] and in experiment [5] was more than 100 µM in each case. Further, the TGI in experiment [6], in experiment [7] and in [8] was more than 100 µM throughout.

With `Cc1ccc(S(=O)(=O)NC(=O)N[C@@H](Cc2cnc[nH]2)C(=O)O)cc1`, the TGI in experiment [1], in experiment [9], in experiment [2], in experiment [3], in [4] and in [5] was more than 100 µM in each case. The TGI in experiment [6], in experiment [7] and in experiment [8] was more than 100 µM each time.

`Cc1ccc(O)c(-c2cscn2)c1`: the TGI in experiment [1], in experiment [9], in experiment [2], in experiment [3], in experiment [10] and in experiment [5] was more than 100 µM throughout. The TGI in experiment [6] is more than 100 µM.

Regarding `C=C1CN2CC(=C)CN(C1)CS(=O)(=O)N1CC(=C)CN(CC(=C)C1)S(=O)(=O)N1CC(=C)CN(CC(=C)C1)S(=O)(=O)C2`, the TGI in experiment [1], in experiment [9], in experiment [2], in [3], in [4] and in experiment [10] was more than 100 µM in each case. For the same compound, the TGI in experiment [5], in experiment [6] and in [7] was more than 100 µM throughout.

Take `CN1[C@@H]2C[C@@H](OC(=O)[C@H](CO)c3ccccc3)C[C@H]1[C@@H]1O[C@@H]12`: the TGI in experiment [1], in experiment [9], in experiment [2], in experiment [3], in [4] and in experiment [10] was more than 100 µM throughout. Besides, the TGI in experiment [5] and in [6] was more than 100 µM in each case.

For `O=C(O)/C=c1/c2ccccc2n2nc3ccccc3c12`, the TGI is more than 100 µM in [1]; more than 100 µM in experiment [9]; more than 100 µM in experiment [2]; 70.1 µM in [3]; 80.7 µM in [4]; more than 100 µM in experiment [10]. The TGI was more than 100 µM in experiment [5], 60.8 µM in [6] and more than 100 µM in experiment [7].

As to `COc1cc(OC)c(C2c3cc4c(cc3OC(N3CCCC3)C2C)OCO4)c(OC)c1` (configuration not stated), the TGI was more than 100 µM in [1]; 35.4 µM in experiment [9]; 57.7 µM in [2]; 30.2 µM in [4]; 87.9 µM in experiment [5]; more than 100 µM in [6].

Regarding `CC(=O)NC1c2ccccc2C(C)(C)C12CCC1(CC2)OCCO1` (configuration not stated), the TGI in experiment [1], in experiment [9], in experiment [2], in [3], in experiment [4] and in [5] was more than 100 µM each time. For the same compound, the TGI in experiment [6], in [7] and in experiment [8] was more than 100 µM each time.

For the compound `CC(C)=CCNc1ncnc2c1ncn2CCC#N`, the TGI in [1], in [9], in experiment [3], in experiment [4], in [10] and in [5] was more than 100 µM in each case. Moreover, the TGI in experiment [6], in experiment [7] and in experiment [8] was more than 100 µM each time.

For the compound `O=C1C(=Cc2ccccc2O)N=C(c2ccccc2)N1n1c(-c2ccccc2)nc2ccccc2c1=O`, the TGI in experiment [1] was more than 100 µM; in [9], more than 100 µM; in experiment [4] it was 98.4 µM; in experiment [10], more than 100 µM; in experiment [5] it was more than 100 µM; in [6], more than 100 µM. Besides, the TGI in [8] was 87.8 µM.

`COc1ccc(-c2nn(-c3ccc(NC(=O)Nc4cc(C(F)(F)F)cc(C(F)(F)F)c4)cc3)cc2-c2ccncc2)cc1Cl`: the GI50 in experiment [1] is 2.99 µM; in experiment [2], 1.93 µM; in experiment [3], 2.82 µM; in [4] it was 2.1 µM; in [10], 3.03 µM; in experiment [5] it was 2.84 µM. For the same compound, the GI50 in experiment [6] was 3.27 µM; in experiment [7], 1.85 µM; in experiment [8] it was 1.8 µM. In addition, the TGI in [1] is more than 100 µM; in experiment [2], 4.38 µM; in experiment [3], 60.7 µM; in experiment [4] it was 7.73 µM; in experiment [10], more than 100 µM; in experiment [5] it was more than 100 µM. Further, the TGI in experiment [6] was more than 100 µM; in experiment [7], 5.48 µM; in [8] it was 8.11 µM.

Consider `CCC(=O)ONC(=O)Cn1ccc([N+](=O)[O-])n1`, for which the TGI in experiment [1], in experiment [9], in experiment [4], in experiment [10], in experiment [5] and in experiment [6] was more than 100 µM in each case. This compound displayed a TGI in experiment [8] of more than 100 µM.
